Test results published in PubChem BioAssay AID2060895 (Molecular Pharmacology Branch, DTP, NCI, 2025).
Values joined by “and” are separate entries in the source; they are usually repeats but may differ in a detail not shown here. Equal entries are not always repeated.

Test system: PDC 899932-113-R3-J6 complex spheroid viability
Experiment: Anticancer human tumor 899932-113-R3-J6-PDC patient-derived melanoma cell line growth inhibition [RAS]
Conditions: for viability, T/C: stronger effect = lower value
How it was run: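 Agents were tested in combination matrices in half-log decrements from a top concentration at or near clinical Cmax (10 microM if undetermined). Targets were multi-cell spheroids of tumour lines plus HUVEC and MSC stromal cells.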

[1] = curve of first compound, second compound 0.0316 µM
[2] = curve of first compound, second compound 0.1 µM
[3] = curve of first compound, second compound 0.316 µM
[4] = curve of first compound, second compound 1 µM
[5] = curve of first compound, second compound 3.16 µM
[6] = curve of first compound, second compound 10 µM
[7] = second compound 0.0316 µM, first compound 0.0316 µM
[8] = second compound 0.0316 µM, first compound 0.1 µM
[9] = second compound 0.0316 µM, first compound 0.316 µM
[10] = second compound 0.0316 µM, first compound 1 µM
[11] = second compound 0.0316 µM, first compound 3.16 µM
[12] = second compound 0.0316 µM, first compound 10 µM
[13] = second compound 0.1 µM, first compound 0.0316 µM
[14] = second compound 0.1 µM, first compound 0.1 µM
[15] = second compound 0.1 µM, first compound 0.316 µM
[16] = second compound 0.1 µM, first compound 1 µM
[17] = second compound 0.1 µM, first compound 3.16 µM
[18] = second compound 0.1 µM, first compound 10 µM
[19] = second compound 0.316 µM, first compound 0.0316 µM
[20] = second compound 0.316 µM, first compound 0.1 µM
[21] = second compound 0.316 µM, first compound 0.316 µM
[22] = second compound 0.316 µM, first compound 1 µM
[23] = second compound 0.316 µM, first compound 3.16 µM
[24] = second compound 0.316 µM, first compound 10 µM
[25] = second compound 1 µM, first compound 0.0316 µM
[26] = second compound 1 µM, first compound 0.1 µM
[27] = second compound 1 µM, first compound 0.316 µM
[28] = second compound 1 µM, first compound 1 µM
[29] = second compound 1 µM, first compound 3.16 µM
[30] = second compound 1 µM, first compound 10 µM
[31] = second compound 3.16 µM, first compound 0.0316 µM
[32] = second compound 3.16 µM, first compound 0.1 µM
[33] = second compound 3.16 µM, first compound 0.316 µM
[34] = second compound 3.16 µM, first compound 1 µM
[35] = second compound 10 µM, first compound 0.0316 µM
[36] = second compound 10 µM, first compound 0.1 µM
[37] = second compound 10 µM, first compound 0.316 µM
[38] = second compound 10 µM, first compound 1 µM
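For viability, T/C in this document: spheroids exposed to agents for seven days before readout; 100% = DMSO vehicle control wells.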

NC1c2ccccc2OC12CCN(c1cnc3c(N4CCCc5ncccc54)n[nH]c3n1)CC2 (configuration not stated) + C#Cc1c(F)ccc2cc(O)cc(-c3ncc4c(N5CC6CCC(C5)N6)nc(OCC56CCCN5CC(F)C6)nc4c3F)c12
IC50 [1]: > 10 µM
IC50 [2]: > 10 µM
IC50 [3]: > 10 µM
IC50 [4]: > 10 µM
IC50 [5]: > 10 µM
IC50 [6]: > 10 µM
viability, T/C [7]: 108%
viability, T/C [8]: 103%
viability, T/C [9]: 117%
viability, T/C [10]: 121%
viability, T/C [11]: 104%
viability, T/C [12]: 98.8%
viability, T/C [13]: 111%
viability, T/C [14]: 115%
viability, T/C [15]: 114%
viability, T/C [16]: 114%
viability, T/C [17]: 117%
viability, T/C [18]: 96.4%
viability, T/C [19]: 108%
viability, T/C [20]: 120%
viability, T/C [21]: 105%
viability, T/C [22]: 116%
viability, T/C [23]: 110%
viability, T/C [24]: 96.6%
viability, T/C [25]: 106%
viability, T/C [26]: 104%
viability, T/C [27]: 124%
viability, T/C [28]: 112%
viability, T/C [29]: 105%
viability, T/C [30]: 111%
viability, T/C [31]: 134%
viability, T/C [32]: 112%
viability, T/C [33]: 135%
viability, T/C [34]: 133%
viability, T/C (second compound 3.16 µM, first compound 3.16 µM): 120%
viability, T/C (second compound 3.16 µM, first compound 10 µM): 107%
viability, T/C [35]: 123%
viability, T/C [36]: 126%
viability, T/C [37]: 120%
viability, T/C [38]: 117%
viability, T/C (second compound 10 µM, first compound 3.16 µM): 112%
viability, T/C (second compound 10 µM, first compound 10 µM): 86.5%

CCN1CCN(Cc2ccc(Nc3ncc(F)c(-c4cc(F)c5nc(C)n(C(C)C)c5c4)n3)nc2)CC1 + C#Cc1c(F)ccc2cc(O)cc(-c3ncc4c(N5CC6CCC(C5)N6)nc(OCC56CCCN5CC(F)C6)nc4c3F)c12
IC50 [1]: 0.502 µM
IC50 [2]: 0.526 µM
IC50 [3]: 0.524 µM
IC50 [4]: 0.49 µM
IC50 [5]: 0.526 µM
IC50 [6]: 0.31 µM
viability, T/C (second compound 0.0316 µM, first compound 0.00316 µM): 105%
viability, T/C (second compound 0.0316 µM, first compound 0.01 µM): 97.1%
viability, T/C [7]: 98.9%
viability, T/C [8]: 83.4%
viability, T/C [9]: 69.8%
viability, T/C [10]: 23.9%
viability, T/C (second compound 0.1 µM, first compound 0.00316 µM): 109%
viability, T/C (second compound 0.1 µM, first compound 0.01 µM): 102%
viability, T/C [13]: 92.9%
viability, T/C [14]: 87%
viability, T/C [15]: 68.9%
viability, T/C [16]: 28.3%
viability, T/C (second compound 0.316 µM, first compound 0.00316 µM): 116%
viability, T/C (second compound 0.316 µM, first compound 0.01 µM): 92.8%
viability, T/C [19]: 94%
viability, T/C [20]: 92.7%
viability, T/C [21]: 69%
viability, T/C [22]: 26.5%
viability, T/C (second compound 1 µM, first compound 0.00316 µM): 115%
viability, T/C (second compound 1 µM, first compound 0.01 µM): 112%
viability, T/C [25]: 98.7%
viability, T/C [26]: 81.6%
viability, T/C [27]: 67.1%
viability, T/C [28]: 27.8%
viability, T/C (second compound 3.16 µM, first compound 0.00316 µM): 126%
viability, T/C (second compound 3.16 µM, first compound 0.01 µM): 112%
viability, T/C [31]: 100%
viability, T/C [32]: 86.2%
viability, T/C [33]: 71.4%
viability, T/C [34]: 28.5%
viability, T/C (second compound 10 µM, first compound 0.00316 µM): 125%
viability, T/C (second compound 10 µM, first compound 0.01 µM): 113%
viability, T/C [35]: 100%
viability, T/C [36]: 84.4%
viability, T/C [37]: 48.4%
viability, T/C [38]: 3.09%

CC(C)NCC(C(=O)N1CCN(c2ncnc3c2C(C)CC3O)CC1)c1ccc(Cl)cc1 (configuration not stated) + C=CC(=O)N1CCN(c2nc(OCC3CCCN3C)nc3c(F)c(-c4nc(N)cc(C)c4C(F)(F)F)c(Cl)cc23)C(C)C1
IC50 (curve of first compound, second compound 0.00316 µM): 4.89 µM
IC50 (curve of first compound, second compound 0.01 µM): 5.2 µM
IC50 [1]: 5.3 µM
IC50 [2]: 5.83 µM
IC50 [3]: 5.98 µM
IC50 [4]: 6.01 µM
viability, T/C (second compound 0.00316 µM, first compound 0.0316 µM): 106%
viability, T/C (second compound 0.00316 µM, first compound 0.1 µM): 97.3%
viability, T/C (second compound 0.00316 µM, first compound 0.316 µM): 99.6%
viability, T/C (second compound 0.00316 µM, first compound 1 µM): 84.4%
viability, T/C (second compound 0.00316 µM, first compound 3.16 µM): 60.3%
viability, T/C (second compound 0.00316 µM, first compound 10 µM): 33%
viability, T/C (second compound 0.01 µM, first compound 0.0316 µM): 110%
viability, T/C (second compound 0.01 µM, first compound 0.1 µM): 105%
viability, T/C (second compound 0.01 µM, first compound 0.316 µM): 102%
viability, T/C (second compound 0.01 µM, first compound 1 µM): 81.3%
viability, T/C (second compound 0.01 µM, first compound 3.16 µM): 60.9%
viability, T/C (second compound 0.01 µM, first compound 10 µM): 36.8%
viability, T/C [7]: 110%
viability, T/C [8]: 101%
viability, T/C [9]: 104%
viability, T/C [10]: 82.7%
viability, T/C [11]: 65.1%
viability, T/C [12]: 32.6%
viability, T/C [13]: 103%
viability, T/C [14]: 110%
viability, T/C [15]: 99%
viability, T/C [16]: 89%
viability, T/C [17]: 58.9%
viability, T/C [18]: 41.9%
viability, T/C [19]: 106%
viability, T/C [20]: 105%
viability, T/C [21]: 96.3%
viability, T/C [22]: 83.7%
viability, T/C [23]: 72.8%
viability, T/C [24]: 33.6%
viability, T/C [25]: 88.7%
viability, T/C [26]: 104%
viability, T/C [27]: 105%
viability, T/C [28]: 89.5%
viability, T/C [29]: 73.7%
viability, T/C [30]: 31.7%

CC(C)n1nc(-c2ccc3oc(N)nc3c2)c2c(N)ncnc21
viability, T/C (compound 0.000316 µM): 107% [middle of 4 runs]
viability, T/C (compound 0.001 µM): 102% [middle of 4 runs]
viability, T/C (compound 0.00316 µM): 116% [middle of 4 runs]
viability, T/C (compound 0.0316 µM): 71.8% [middle of 4 runs]
IC50 (curve of compound): > 0.1 µM and 0.076 µM and 0.0693 µM

CCC(CC)c1cc(NC2CCC(N)C2)n2nccc2n1 (configuration not stated)
viability, T/C (compound 0.0316 µM): 106% [middle of 4 runs]
viability, T/C (compound 0.1 µM): 94.7% [middle of 4 runs]
viability, T/C (compound 0.316 µM): 99.3% [middle of 4 runs]
viability, T/C (compound 3.16 µM): 1.29% [middle of 4 runs]
viability, T/C (compound 10 µM): 1% [middle of 4 runs]
IC50 (curve of compound): 1.63 µM [middle of 4 runs]
